US6514955B1, “Multi-faceted method to repress reproduction of latent viruses in humans and animals” (HIV Diagnostics, Inc., priority 1993, dated 2003)

Tests used:
[1] = cited from earlier work
NADPH oxidase = NADPH oxidase (Homo sapiens, UniProt P04839); details: cited from earlier work
hybridoma macrophages = test: Oxidant release in LPS or interferon activated hybridoma macrophages; type: cell-based
From the text: PMA activates the oxidative burst. The oxidant detected is the same oxidant seen in Kupfer liver cells and lung macrophages: peroxynitrite.

Chain of NADPH oxidase (P04839 2-570 limits assumed): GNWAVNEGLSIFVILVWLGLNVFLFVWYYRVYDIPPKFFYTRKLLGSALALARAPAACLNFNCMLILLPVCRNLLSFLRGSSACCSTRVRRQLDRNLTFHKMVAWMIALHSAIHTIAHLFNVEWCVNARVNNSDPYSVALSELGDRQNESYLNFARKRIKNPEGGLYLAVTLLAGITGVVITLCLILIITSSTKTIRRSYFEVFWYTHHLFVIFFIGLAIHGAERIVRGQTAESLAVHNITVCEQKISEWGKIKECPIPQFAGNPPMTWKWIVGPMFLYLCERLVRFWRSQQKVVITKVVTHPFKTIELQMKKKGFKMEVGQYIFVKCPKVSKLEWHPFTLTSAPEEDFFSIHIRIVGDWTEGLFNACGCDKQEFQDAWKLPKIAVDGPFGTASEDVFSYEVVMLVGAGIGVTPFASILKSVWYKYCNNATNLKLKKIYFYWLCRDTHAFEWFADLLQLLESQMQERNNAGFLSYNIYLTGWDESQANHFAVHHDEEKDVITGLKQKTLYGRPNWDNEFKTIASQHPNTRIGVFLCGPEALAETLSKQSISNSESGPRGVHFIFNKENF
Chain of NADPH oxidase (P13498 2-195 partner limits assumed): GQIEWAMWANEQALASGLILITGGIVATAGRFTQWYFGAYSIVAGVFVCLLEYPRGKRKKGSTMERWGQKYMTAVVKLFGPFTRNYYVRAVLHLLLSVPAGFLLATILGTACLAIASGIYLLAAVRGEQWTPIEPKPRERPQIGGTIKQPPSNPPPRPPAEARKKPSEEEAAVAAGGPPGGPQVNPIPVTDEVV

SMILES: O=C1NC(C(=O)O)CS1 (stereo not shown) [2-oxo-4-thiazolidene carboxylic acid]
- Oral doses administered without toxicity ([1]; in vivo, po): 0.15 to 0.45 mmol/kg

SMILES: CC(=O)N[C@@H](CS)C(=O)O [N-acetyl cysteine]
- Daily dose usable without toxic side effects ([1]; man, daily): Up to 40 mg per kilogram of body weight

SMILES: c1ccc2c(c1)[I+]c1ccccc1-2 [diphenylene iodonium]
- Concentration printed for NADPH oxidase inhibitor (NADPH oxidase): 15 nM

SMILES: CCCCCCCCCCCCCC(=O)O[C@@H]1[C@@H](C)[C@@]2(O)[C@@H](C=C(CO)C[C@]3(O)C(=O)C(C)=C[C@@H]23)[C@@H]2C(C)(C)[C@]12OC(C)=O [phorbol myristate acetate]
- Stimulation of oxidant (peroxynitrite) produced (hybridoma macrophages): about 40 fold
